How the values were obtained:
[1] = Body weight of tumor model mice; format: in vivo, BALB/C nude mouse; conditions: BEL-7402 model nude mice
Text: (§1) • (1) Inoculate human hepatoma cell line BEL-7402 below back skin of BALB/C nude mouse.

[2] = system: human hepatoma cell line BEL-7402; conditions: BALB/C nude mouse
Text: as §1

[3] = In vivo half-life period of calcitonin after vein injection; set-up: species or system new zealand white rabbit; conditions: rabbit, injection through vein
[4] = 0.2 ml intraperitoneal injection every day, after 10 d

For `COc1cccc2c1C(=O)c1c(O)c3c(c(O)c1C2=O)C[C@@](O)(C(=O)CO)C[C@@H]3O[C@H]1C[C@H](N)[C@H](O)[C@H](C)O1` [Adriamycin amycin, adriamycin], which “Weight Before treatment” value [1] is on record?
Its value is 20.03 g.

And the “Weight After treatment” value [1, 4]?
Its value is 20.1 g.

What about the “Tumor After treatment” value [2, 4] of the same compound?
The value was 50.17 mm^3.

And the “Tumor Before treatment” value ([2]; liver-implanted tumor)?
The value was 42.93 mm^3.

With calcitonin [ordinary calcitonin] as the compound, how does the “in vivo half-life period” value [3] read?
The value was 2 h.
